pIC50: −log10 of the molar value.
What was measured:
[1] = molecular target: T1, vasopressin V2 receptor (rat kidney medullary) (Rattus norvegicus, UniProt Q00788); experiment: Binding Assay to Rat Kidney Medullary V2 Receptors; details: for inhibition at 10 µM: rat kidney V2
T1 construct: Medullary tissues from rat kidneys are dissected out; from tissue; host or cells: rat kidney medulla membranes
Description: Binding Assay to Rat Kidney Medullary V2 Receptors
Medullary tissues from rat kidneys are dissected out, cut into small pieces and soaked in a […] sodium chloride solution containing 1.0 mM EDTA with many changes of the liquid phase, until the solution is clear of blood. […] The tissue is homogenized in a 0.25M sucrose solution containing 1.0 mM EDTA and 0.1 mM PMSF using a Potter-Elvehjem homogenizer with a teflon pestle. The homogenate is filtered through several layers (4 layers) of cheese cloth. The filtrate is rehomogenized using a dounce homogenizer, with a tight fitting pestle. The final homogenate is centrifuged at 1500×g for 15 min. The nuclear pellet is discarded and the supernatant fluid recentrifuged at 40,000×g for 30 min. The resulting pellet formed contains a dark inner part with the exterior, slightly pink. The pink outer part is suspended in a small amount of 50.0 mM Tris.HCl buffer, pH 7.4. The protein content is determined by the Lowry's method (Lowry et al., J. Biol. Chem., 1953). The membrane suspension is stored at -70° C., in 50.0 mM Tris.HCl, containing 0.2% inactivated BSA and 0.1 mM PMSF in aliquots of 1.0 ml containing 10.0 mg protein per ml of suspension until sue in subsequent binding experiments.
For binding experiments, the following is added in ml volume to wells of a 96 well format of a microtiter plate: 100.0 ml of 100.0 mM Tris.HCl buffer containing 0.2% heat inactivated BSA, 10.0 mM MgCL2 and a mixture of protease inhibitors: leupeptin, 1.0 mg %; aprotinin, 1.0 mg % 1,10-phenanthroline, 2.0 mg %; trypsin inhibitor, and 0.1 mM PMSF, 20.0 ml of [^3 H] Arginine^8, vasopressin (S.A. 75.0 Ci/mmole) at 0.8 nM and the reaction initiated by the addition of 80.0 ml of tissue membranes (200.0 mg tissue protein). The plates are left undisturbed on the bench top for 120 minutes to reach equilibrium. Non-specific binding is assessed in the presence of 1.0 mM of unlabeled ligand, added in 20 ml volume. For test compounds, these are solubilized in 50% dimethylsulfoxide (DMSO) and added in 20.0 ml volume to a final incubation volume of […]. Upon completion of binding, the content of each well is filtered off, using a Brandel® cell Harvester (Gaithersburg, Md.). The radioactivity trapped on the filter disk by the ligand-receptor complex is assessed by liquid scintillation counting in a Parkard LS Counter, with an efficiency of 65% for tritium.

[2] = molecular target: T2, vasopressin V1 receptor (rat liver plasma membranes) (Rattus norvegicus, UniProt P30560); experiment: Binding Assay to Rat Hepatic V1 Receptors
T2 construct: Rat liver plasma membranes expressing the vasopressin V1 receptor subtypes; from tissue; host or cells: rat liver plasma membranes
T2 sequence (P30560 whole entry): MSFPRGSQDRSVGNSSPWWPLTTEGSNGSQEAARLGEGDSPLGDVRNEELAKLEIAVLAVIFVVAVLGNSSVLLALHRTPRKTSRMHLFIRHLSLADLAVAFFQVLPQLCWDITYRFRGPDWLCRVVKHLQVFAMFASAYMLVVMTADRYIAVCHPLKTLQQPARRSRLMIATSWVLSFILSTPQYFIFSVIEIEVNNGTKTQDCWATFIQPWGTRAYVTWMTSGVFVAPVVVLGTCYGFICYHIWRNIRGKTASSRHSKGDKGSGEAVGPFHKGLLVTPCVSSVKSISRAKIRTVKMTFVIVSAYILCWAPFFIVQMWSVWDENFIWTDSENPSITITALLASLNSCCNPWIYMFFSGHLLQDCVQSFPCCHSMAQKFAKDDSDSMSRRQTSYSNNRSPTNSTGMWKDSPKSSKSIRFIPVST
Description: Binding Assay to Rat Hepatic V1 Receptors
Rat liver plasma membranes expressing the vasopressin V1 receptor subtypes are isolated by sucrose density gradient according to the method described by Lesko et al., (1973). These membranes are quickly suspended in 50.0 mM Tris.HCl buffer, pH 7.4, containing 0.2% bovine serum albumin (BSA) and 0.1 mM phenylmethylsulfonylfluoride (PMSF) and kept frozen at -70° C. until used in subsequent binding experiments. For binding experiments, the following is added to the wells of a ninety-six well format microtiter plate: […] of […] buffer containing 10.0 mM MgCl2, 0.2% heat inactivated BSA and a mixture of protease inhibitors: leupeptin, 1.0 mg %; aprotinin, 1.0 mg %; 1,10-phenanthroline,2.0 mg %; trypsin inhibitor, 10.0 mg % and 0.1 mM PMSF, 20.0 ml of [phenylalanyl-3,4,5, -^3 H] vasopressin (S.A. 45.1 Ci/mmole) […], and the reaction initiated by the addition of 80 ml of tissue membranes containing 20 mg of tissue protein. The plates are kept undisturbed on the bench top at room temperature for 120 min. to reach equilibrium. Non-specific samples are assayed in the presence of 0.1 mM of the unlabeled […] phenylalanylvasopressin, added in 20.0 ml volume.
For test compounds, these are solubilized in 50% dimethylsulfoxide (DMSO) and added in 20.0 ml volume to a final incubation volume of […]. Upon completion of binding, the content of each well is filtered off, using a Brandel® cell Harvester (Gaithersburg, Md.). The radioactivity trapped on the filter disk by the ligand-receptor complex is assessed by liquid scintillation counting in a Packard LS Counter, with an efficiency of 65% for tritium.

T1 sequence (Q00788 whole entry): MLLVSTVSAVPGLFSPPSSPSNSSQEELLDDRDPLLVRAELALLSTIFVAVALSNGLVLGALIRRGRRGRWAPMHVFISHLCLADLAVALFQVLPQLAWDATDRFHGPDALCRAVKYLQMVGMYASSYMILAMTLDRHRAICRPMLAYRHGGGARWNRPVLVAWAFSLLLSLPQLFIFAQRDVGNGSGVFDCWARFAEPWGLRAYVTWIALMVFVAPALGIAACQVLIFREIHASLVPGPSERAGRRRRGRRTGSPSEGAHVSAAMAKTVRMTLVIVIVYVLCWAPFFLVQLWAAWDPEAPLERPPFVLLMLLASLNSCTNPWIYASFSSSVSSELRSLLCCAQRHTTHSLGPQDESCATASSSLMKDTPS

SMILES | pIC50 ([1]; rat kidney medullary V2 receptors) | pIC50 ([2]; rat hepatic V1 receptors) | inhibition at 10 µM [1] | inhibition at 10 µM ([2]; 2 h, rat hepatic V1) | inhibition at 1 µM ([2]; 2 h, rat hepatic V1, at 1 μM)
Cc1ccc(F)cc1C(=O)Nc1ccc(C(=O)N2Cc3sccc3Cc3ccccc32)cn1 [Example 2, N-[5-[(9,10-Dihydro-4H-thieno[2,3-c][1]benzazepin-9-yl)carbonyl]-2-pyridinyl]-5-fluoro-2-methylbenzamide] | 7.54 | 7.23 |  |  | 
Cc1ccc(F)cc1C(=O)Nc1ccc(C(=O)N2Cc3ccccc3Oc3ncccc32)cn1 [Example 4, N-[5-(Pyrido[2,3-b][1,4]benzoxazepin-5(6H)-ylcarbonyl)-2-pyridinyl]-5-fluoro-2-methylbenzamide] |  |  | 20% | 44% | 
Cc1ccc(F)cc1C(=O)Nc1ccc(C(=O)N2Cc3ccccc3CCc3ccccc32)cn1 [Example 45] |  |  | 62% | 34% | 

The remaining lines, values ahead:

pIC50 ([1]; rat kidney medullary V2 receptors) | pIC50 ([2]; rat hepatic V1 receptors) | inhibition at 10 µM [1] | inhibition at 10 µM ([2]; 2 h, rat hepatic V1) | inhibition at 1 µM ([2]; 2 h, rat hepatic V1, at 1 μM) | SMILES
 |  | 29% |  | 46% | O=C(c1ccc(-c2ccccc2)cc1)N1Cc2ccccc2Oc2ccccc21 [Example 26, 10-([1,1'-Biphenyl]-4-ylcarbonyl)-10,11-dihydrodibenz[b,f][1,4]oxazepine]
 |  | 33% | 53% |  | O=C(c1ccccc1)c1ccc(C(=O)N2Cc3ccccc3Oc3ccccc32)cc1 [Example 32, 10-(4-Benzoylbenzoyl)-10,11-dihydrodibenz[b,f][1,4]oxazepine]

Source: patent US5849735A, “Tricyclic benzazepine vasopressin antagonists” (American Cyanamid Company, priority 1995, dated 1998)
